From patent US20230165766A1, “DISPERSANT OR DISPERSION MEDIA COMPOSITION COMPRISING 2,3-BUTANEDIOL, AND COSMETIC COMPOSITION COMPRISING SAME” (GS CALTEX CORPORATION, priority 2020, published 2023)

Assays:
[1] = Ceramide dispersion force in solubilized essence formulation and O/W emulsion formulation; format: physicochemical
Method: Further, an experiment for evaluating the dispersion force of ceramide was performed by applying the same to each of the solubilized essence formulation and the O/W emulsion formulation.

[2] = Dispersibility of vitamin C in P/O emulsion under heating condition; format: physicochemical; details: vitamin C-containing formulations
Method: Vitamin C is a water-soluble substance that dissolves well in water. […] Therefore, in this experiment, vitamin C was applied to a polyol in oil (P/O) formulation as an anhydrous formulation, and an ivory-colored cream was prepared to evaluate dispersibility. It is more important to produce a stable cosmetic without discoloration, odor change, or phase separation rather than the problem of precipitation regarding vitamin C. Thus, factors for evaluating the dispersing power were set as soft spreadability, application uniformity, and emulsion stability. 1 part by weight of […] JC 500B, 1.5 parts by weight of ABIL EM 90, and 2 parts by weight of KF 6017 were added to 100 parts by weight of ELASTOMER BASE to produce an oil-based mixed solution 1. […] Further. 15 parts by weight of ascorbic acid ultra-fine powder was used to prepare a water-based mixed solution 2. Further, 45 parts by weight of KSG-16 was used to prepare an oil-based mixed solution 2. The oil-based mixed solution 1 was heated to 80 to 90° C. while stirring the same. […] The dispersion stability was evaluated as follows: unstable: phase separation between the oil phase and the aqueous phase, discoloration and/or odor change, normal: the oil phase being slightly separated, and stable: no oil phase separation.

[3] = Allantoin dispersion force evaluation (precipitation amount in water); format: physicochemical
Excerpt: Precipitation of allantoin occurs well when the temperature is low. When allantoin is precipitated during cosmetic production, it is problematic. In accordance with the present disclosure, using the property of allantoin whose precipitation occurs well, the dispersion force was identified in a short time by measuring an amount of precipitation of allantoin based on each of the polyols under a severe refrigeration condition when the temperature is low, and then the dispersion forces of the various polyols were compared with each other. The stability was evaluated at each of a room temperature, a refrigeration temperature, and thermostat (45° C.). […] In this experiment, the dispersion force of allantoin, that is, the precipitation amount, and a precipitation rate thereof, based on each of the polyols was evaluated. […] The amount of precipitation of allantoin was measured as follows. […] After the 24 hours or 7 days, a supernatant was removed therefrom, and the resulting mixture was dried in a thermostat to entirely remove any remaining supernatant, leaving only the precipitated portion. Then, the precipitated portion was dried for 12 hours, and then a weight thereof was measured. Thus, the amount of precipitation was derived as a difference value between the measured weight and the previously measured weight of the empty container.

[4] = Dispersion force of allantoin in solubilized formulation; format: physicochemical
Method: 0.02 parts by weight of EDTA-2Na, 2 parts by weight of 1,2-hexanediol, and 0.5 parts by weight of allantoin were added to 100 parts by weight of purified water to prepare a water-based mixed solution. On the other hand, 0.1 parts by weight of fragrance, 0.3 parts by weight of PEG-60 hydrogenated castor oil, 5 parts by weight of 95% ethanol and 10 parts by weight of the polyol of Present Example 2 were mixed with each other to prepare a solubilized mixed solution. That is, the water-based mixed solution is composed of ultrapure water, EDTA-2Na, 1,2-hexanediol and allantoin, while the solubilized mixed solution is composed of fragrance, PEG-60 hydrogenated castor oil, ethanol and polyol.
The water-based mixed solution was stirred at room temperature for 3 minutes. On the other hand, the solubilized mixed solution was stirred was heating the same to 45 to 50° C. to make the same transparent. Then, the solubilized mixed solution was slowly added to the water-based mixed solution to prepare a mixture which in turn was stirred at room temperature for 2 minutes.
The amount of precipitation of allantoin was measured as follows. […] Then, the precipitated portion was dried for 12 hours, and then a weight thereof was measured. Thus, the amount of precipitation was derived as a difference value between the measured weight and the previously measured weight of the empty container.

[5] = Ceramide dispersion force evaluation (ceramide in polyol); format: physicochemical
Method: (§1) Ceramide is an oil-soluble substance that is not soluble in water, precipitates easily during cosmetic production. It is difficult to stabilize ceramide due to gelling during the cosmetic production. In accordance with the present disclosure, the dispersion forces based on types of polyols were compared with each other using the characteristics of ceramide that precipitation thereof occurs well. The stability was evaluated at each of the room temperature, the refrigeration temperature, and the thermostat (45° C.).

[6] = Ceramide dispersion force in solubilized skin formulation; format: physicochemical
Method: as §1
0.02 parts by weight of EDTA-2Na and 2 parts by weight of 1,2-hexanediol were added to 100 parts by weight of purified water to prepare a water-based mixed solution 1. On the other hand, 0.1 parts by weight of fragrance, 0.3 parts by weight of PEG-60 hydrogenated castor oil, and 5 parts by weight of DPG (Dipropylene Glycol) were mixed with each other to produce a solubilized mixed solution. Further, a water-based mixed solution 2 was prepared by mixing 10 parts by weight of polyol of Present Example 6 and 1 part by weight of ceramide with each other.
The water-based mixed solution 1 was stirred at room temperature for 2 minutes. On the other hand, the solubilized mixed solution was heated to 45 to 50° C. while stirring the same to make the same transparent, and then was slowly added to the water-based mixed solution under a stirring operation. […]

[7] = cited from earlier work

## C[C@H](O)[C@@H](C)O [(2R,3S)-2,3-butanediol]
[1]
  dispersion force of ceramide: the dispersion force was excellent
  gelling phenomenon: no gelling phenomenon was observed
[2]
  difference between the properties under the heating/non-heating conditions: no significant difference

## C[C@H](O)[C@@H](C)O [Present Example 1, (2R,3S)-2,3butanediol]
[3]
  dispersion force for allantoin: excellent

## C[C@H](O)[C@@H](C)O [Present Example 2, (2R,3S)-2,3butanediol]
[4]
  allantoin dispersion force in the solubilized formulation: excellent

## C[C@H](O)[C@@H](C)O [Present Example 5, (2R,3S)-2,3butanediol]
[5]; 1 part ceramide in 100 parts polyol
  ceramide dispersion force: ceramide was stably dispersed
[5]; thermostat (45° C.), 4 weeks
  state after 4 weeks in thermostat: excellent dispersing power

## C[C@H](O)[C@@H](C)O [Present Example 6, (2R,3S)-2,3butanediol]
[6]
  ceramide dispersion force: ceramide was stably dispersed

## NC(=O)NC1NC(=O)NC1=O (stereo not drawn) [allantoin]
[7]
  solubility of allantoin: 0.5 g/100 mL
